In patent US20020026053A1, “Novel 3-(substituted) -2- indolinones compounds and use thereof as inhibitors of protein kinase activity” (priority 1997, published 2002):

Test system: FLK-1 receptor
Experiment: FLK-1 Assay (cellular/catalytic ELISA, VEGF-stimulated phosphotyrosine)
Assay type: cell-based
Design: concentration or dose not given beside the values
Summary of the method: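 Receptor phosphotyrosine ELISA: Flk-1-expressing NIH3T3 C7#3 cells, starved overnight in 0.1% FBS medium, received compound (1:200 final dilution, 0.5% DMSO) for 2 h at 37 °C, then VEGF. Anti-FLK-1-captured receptor was probed with anti-phosphotyrosine UB40 and peroxidase/ABTS read-out, relative to cells without compound.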

| Compound | Flk Kinase % Inhibition (P.110) [%] |
| --- | --- |
| Cc1c(Br)cc(Br)c2c1C(=Cc1ccc(O)cc1)C(=O)N2 [10719/H07] | 2.4 |
| Cc1c(Br)cc(Br)c2c1C(=Cc1ccc(N(C)C)cc1)C(=O)N2 [10719/H08] | 11.6 |
| Cc1c(Br)cc(Br)c2c1C(=Cc1ccc(F)cc1Cl)C(=O)N2 [10719/H09] | 2.5 |
| Cc1c(Br)cc(Br)c2c1C(=Cc1cccc([N+](=O)[O-])c1)C(=O)N2 [10719/H10] | −0.7 |
| Cc1c(Br)cc(Br)c2c1C(=Cc1ccc(F)cc1C(F)(F)F)C(=O)N2 [10719/H11] | 12.3 |
| Cc1c(Br)cc(Br)c2c1C(=Cc1c(F)cc(F)cc1F)C(=O)N2 [10720/H02] | 9.7 |
| COc1cc(O)ccc1C=C1C(=O)Nc2c(Br)cc(Br)c(C)c21 [10720/H03] | 1.8 |
| N#Cc1ccccc1C=C1C(=O)Nc2ccc(CCCl)cc21 [10735/G07] | 17.6 |
| O=C1Nc2ccc(CCCl)cc2C1=Cc1c(F)cccc1F [10735/G08] | 10.9 |
| O=C1Nc2ccc(CCCl)cc2C1=Cc1cccc2ccccc12 [10735/G09] | 15.9 |
| O=C1Nc2ccc(CCCl)cc2C1=Cc1ccc(Cl)cc1Cl [10735/G10] | 6.8 |
| O=C1Nc2ccc(CCCl)cc2C1=Cc1ccc(-c2ccccc2)cc1 [10735/G11] | 10.1 |
| Cc1ccccc1C=C1C(=O)Nc2c(Br)cc(Br)c(C)c21 [10735/H02] | 14.5 |
| Cc1c(Br)cc(Br)c2c1C(=Cc1ccc(F)c(F)c1)C(=O)N2 [10735/H03] | 7.4 |
| Cc1c(Br)cc(Br)c2c1C(=Cc1cc(F)cc(F)c1)C(=O)N2 [10735/H04] | 12.8 |
| Cc1c(Br)cc(Br)c2c1C(=Cc1cccc(C(F)(F)F)c1)C(=O)N2 [10735/H05] | 29.5 |
| Cc1c(Br)cc(Br)c2c1C(=Cc1cc(C(F)(F)F)cc(C(F)(F)F)c1)C(=O)N2 [10735/H06] | 25.9 |
| Cc1c(Br)cc(Br)c2c1C(=Cc1ccccc1C#N)C(=O)N2 [10735/H07] | 21.4 |
| Cc1c(Br)cc(Br)c2c1C(=Cc1c(F)cccc1F)C(=O)N2 [10735/H08] | 29.1 |
| Cc1c(Br)cc(Br)c2c1C(=Cc1cccc3ccccc13)C(=O)N2 [10735/H09] | 20.6 |
| Cc1c(Br)cc(Br)c2c1C(=Cc1ccc(Cl)cc1Cl)C(=O)N2 [10735/H10] | 24.0 |
| Cc1c(Br)cc(Br)c2c1C(=Cc1ccc(-c3ccccc3)cc1)C(=O)N2 [10735/H11] | 28.3 |
| O=C1Nc2c(Br)cc(Br)cc2C1=Cc1ccc(Cl)cc1 [10736/A02] | −6.0 |
| O=C1Nc2c(Br)cc(Br)cc2C1=Cc1ccccc1C(F)(F)F [10736/A03] | 5.7 |
| Cc1cccc(C=C2C(=O)Nc3c(Br)cc(Br)cc32)c1 [10736/A04] | −13.0 |
| Cc1ccc(C=C2C(=O)Nc3c(Br)cc(Br)cc32)cc1 [10736/A05] | −19.4 |
| O=C1Nc2c(Br)cc(Br)cc2C1=Cc1cccc(Cl)c1 [10736/A06] | −18.2 |

| Compound | Flk Kinase % Inhibition (P.110) [%] |
| --- | --- |
| O=C1Nc2c(Br)cc(Br)cc2C1=Cc1cccc(F)c1 [10736/A07] | −12.6 |
| O=C1Nc2c(Br)cc(Br)cc2C1=Cc1ccccc1F [10736/A08] | −13.4 |
| CCc1ccc(C=C2C(=O)Nc3c(Br)cc(Br)cc32)cc1 [10736/A09] | −8.7 |
| COc1cccc(C=C2C(=O)Nc3c(Br)cc(Br)cc32)c1 [10736/A10] | −11.0 |
| O=C1Nc2c(Br)cc(Br)cc2C1=Cc1ccccc1Cl [10736/A11] | −12.4 |
| O=C1Nc2ccc(I)cc2C1=Cc1ccc(Cl)cc1 [10736/B02] | 1.0 |
| O=C1Nc2ccc(I)cc2C1=Cc1ccccc1C(F)(F)F [10736/B03] | 11.3 |
| Cc1cccc(C=C2C(=O)Nc3ccc(I)cc32)c1 [10736/B04] | 3.0 |
| Cc1ccc(C=C2C(=O)Nc3ccc(I)cc32)cc1 [10736/B05] | −0.5 |
| O=C1Nc2ccc(I)cc2C1=Cc1cccc(Cl)c1 [10736/B06] | 3.8 |
| O=C1Nc2ccc(I)cc2C1=Cc1cccc(F)c1 [10736/B07] | 4.0 |
| O=C1Nc2ccc(I)cc2C1=Cc1ccccc1F [10736/B08] | 5.0 |
| CCc1ccc(C=C2C(=O)Nc3ccc(I)cc32)cc1 [10736/B09] | 8.0 |
| COc1cccc(C=C2C(=O)Nc3ccc(I)cc32)c1 [10736/B10] | 2.5 |
| O=C1Nc2ccc(I)cc2C1=Cc1ccccc1Cl [10736/B11] | 7.3 |
| Cc1c(Br)ccc2c1C(=Cc1ccc(Cl)cc1)C(=O)N2 [10736/C02] | −0.9 |
| Cc1c(Br)ccc2c1C(=Cc1ccccc1C(F)(F)F)C(=O)N2 [10736/C03] | 6.5 |
| Cc1cccc(C=C2C(=O)Nc3ccc(Br)c(C)c32)c1 [10736/C04] | 2.8 |
| Cc1ccc(C=C2C(=O)Nc3ccc(Br)c(C)c32)cc1 [10736/C05] | 4.6 |
| Cc1c(Br)ccc2c1C(=Cc1cccc(Cl)c1)C(=O)N2 [10736/C06] | 6.2 |
| Cc1c(Br)ccc2c1C(=Cc1cccc(F)c1)C(=O)N2 [10736/C07] | 4.4 |
| Cc1c(Br)ccc2c1C(=Cc1ccccc1F)C(=O)N2 [10736/C08] | 3.1 |
| CCc1ccc(C=C2C(=O)Nc3ccc(Br)c(C)c32)cc1 [10736/C09] | 11.2 |
| COc1cccc(C=C2C(=O)Nc3ccc(Br)c(C)c32)c1 [10736/C10] | 1.1 |
| Cc1c(Br)ccc2c1C(=Cc1ccccc1Cl)C(=O)N2 [10736/C11] | 7.2 |
| CNS(=O)(=O)c1ccc2c(c1)C(=Cc1ccc(Cl)cc1)C(=O)N2 [10736/D02] | 5.8 |
| CNS(=O)(=O)c1ccc2c(c1)C(=Cc1ccccc1C(F)(F)F)C(=O)N2 [10736/D03] | 5.4 |

| Compound | Flk Kinase % Inhibition (P.110) [%] |
| --- | --- |
| CNS(=O)(=O)c1ccc2c(c1)C(=Cc1cccc(C)c1)C(=O)N2 [10736/D04] | 4.3 |
| CNS(=O)(=O)c1ccc2c(c1)C(=Cc1ccc(C)cc1)C(=O)N2 [10736/D05] | 15.2 |
| CNS(=O)(=O)c1ccc2c(c1)C(=Cc1cccc(Cl)c1)C(=O)N2 [10736/D06] | 12.2 |
| CNS(=O)(=O)c1ccc2c(c1)C(=Cc1cccc(F)c1)C(=O)N2 [10736/D07] | 7.0 |
| CNS(=O)(=O)c1ccc2c(c1)C(=Cc1ccccc1F)C(=O)N2 [10736/D08] | 11.0 |
| CCc1ccc(C=C2C(=O)Nc3ccc(S(=O)(=O)NC)cc32)cc1 [10736/D09] | 8.5 |
| CNS(=O)(=O)c1ccc2c(c1)C(=Cc1cccc(OC)c1)C(=O)N2 [10736/D10] | −11.6 |
| CNS(=O)(=O)c1ccc2c(c1)C(=Cc1ccccc1Cl)C(=O)N2 [10736/D11] | 12.5 |
| O=C1Nc2ccc(S(=O)(=O)Nc3ccc(C(F)(F)F)cc3)cc2C1=Cc1ccc(Cl)cc1 [10736/E02] | 8.2 |
| O=C1Nc2ccc(S(=O)(=O)Nc3ccc(C(F)(F)F)cc3)cc2C1=Cc1ccccc1C(F)(F)F [10736/E03] | 17.7 |
| Cc1cccc(C=C2C(=O)Nc3ccc(S(=O)(=O)Nc4ccc(C(F)(F)F)cc4)cc32)c1 [10736/E04] | 22.6 |
| Cc1ccc(C=C2C(=O)Nc3ccc(S(=O)(=O)Nc4ccc(C(F)(F)F)cc4)cc32)cc1 [10736/E05] | 30.2 |
| O=C1Nc2ccc(S(=O)(=O)Nc3ccc(C(F)(F)F)cc3)cc2C1=Cc1cccc(Cl)c1 [10736/E06] | 20.1 |
| O=C1Nc2ccc(S(=O)(=O)Nc3ccc(C(F)(F)F)cc3)cc2C1=Cc1cccc(F)c1 [10736/E07] | 15.3 |
| O=C1Nc2ccc(S(=O)(=O)Nc3ccc(C(F)(F)F)cc3)cc2C1=Cc1ccccc1F [10736/E08] | 19.3 |
| CCc1ccc(C=C2C(=O)Nc3ccc(S(=O)(=O)Nc4ccc(C(F)(F)F)cc4)cc32)cc1 [10736/E09] | 14.1 |
| COc1cccc(C=C2C(=O)Nc3ccc(S(=O)(=O)Nc4ccc(C(F)(F)F)cc4)cc32)c1 [10736/E10] | 27.2 |
| O=C1Nc2ccc(S(=O)(=O)Nc3ccc(C(F)(F)F)cc3)cc2C1=Cc1ccccc1Cl [10736/E11] | 20.5 |
| O=C1Nc2ccc(S(=O)(=O)N3CCOCC3)cc2C1=Cc1ccc(Cl)cc1 [10736/F02] | 23.9 |
| O=C1Nc2ccc(S(=O)(=O)N3CCOCC3)cc2C1=Cc1ccccc1C(F)(F)F [10736/F03] | 16.6 |
| Cc1cccc(C=C2C(=O)Nc3ccc(S(=O)(=O)N4CCOCC4)cc32)c1 [10736/F04] | 16.5 |
| Cc1ccc(C=C2C(=O)Nc3ccc(S(=O)(=O)N4CCOCC4)cc32)cc1 [10736/F05] | 15.1 |
| O=C1Nc2ccc(S(=O)(=O)N3CCOCC3)cc2C1=Cc1cccc(Cl)c1 [10736/F06] | 14.5 |
| O=C1Nc2ccc(S(=O)(=O)N3CCOCC3)cc2C1=Cc1cccc(F)c1 [10736/F07] | 16.6 |
| O=C1Nc2ccc(S(=O)(=O)N3CCOCC3)cc2C1=Cc1ccccc1F [10736/F08] | 7.4 |
| CCc1ccc(C=C2C(=O)Nc3ccc(S(=O)(=O)N4CCOCC4)cc32)cc1 [10736/F09] | 24.0 |
